The conditions of data set [1]: cited from earlier work.
The nature of data set [2]: 24-hour urinary uric acid excretion, open-label fixed-sequence clinical study (NCT01428284). It counts as in vivo, human. As to conditions: for Increase of mean urinary urate excretion compared to baseline: canagliflozin alone; for Urine urate excretion, Mean / Urine urate excretion, Mean Change from Day−1: healthy subjects, 24-hour urine, canagliflozin 300 mg once daily from Day 1. The source says: (§1) A single-center, open-label, fixed-sequence study to assess the effects of multiple-dose probenecid on multiple-dose of canagliflozin, in healthy subjects, was completed as described below (study NCT01428284) on clinicaltrials.gov registry website). The study consisted of 3 phases: (1) a Screening Phase of approximately 19 days (Day −21 to Day −3), (2) an Open-label Treatment Phase of 20 days (Day −2 to Day 18), and (3) a Follow-up phase (7 to 10 days after discharge on Day 18). The total duration of the study was approximately 49 days.
(§2) Subjects with history of (or current) any of the following medical conditions were excluded: (a) Acute or chronic renal insufficiency (eGFR below 90 mL/min/1.73 m^2); (b) Kidney or bladder stones (nephrolithiasis); (c) Hyperuricosuria (>800 mg/day), or gout; and/or (d) Hyperuricemia (>6.8 mg/dL, 404 μmol/L). Reasons for subject withdrawal from the study could include the following: (a) Lost to follow-up; (b) Withdrawal of consent; (c) Withdrawal of consent for pharmacogenomic research (Part 1); (d) Subject was not in compliance with requirements of the study and prohibitions and restrictions; and/or (e) A subject could be discontinued from study treatment (final assessments were to be obtained) if the investigator believed that for safety reasons (eg, adverse event) it was in the best interest of the subject to stop study treatment.
(§3) All study drugs were taken between 7:30 and 9:30 a.m. with 240 mL of noncarbonated water. Study drug was swallowed whole and not chewed, divided, dissolved or crushed. […] For each subject, on days when both canagliflozin and probenecid were administered, both doses were administered at approximately the same time.
(§4) Canagliflozin was administered as a single 300-mg tablet on Days 1 to Day 17. Probenecid was administered b.i.d. as one 500-mg tablet from Day 15 to Day 17. On Day 14 and Day 17, subjects received study drug under fasted conditions, and standardized lunch approximately 4 hours after study drug administration. On all other study days, subjects received canagliflozin and/or probenecid 1 hour before they received a standardized meal. The study diet was standardized by the site dietician in order to minimize the effect on uric acid levels. Subjects were also advised not to consume high purine-enriched foods from screening to completion of the study.
(§5) All laboratory testing was conducted by a licensed clinical laboratory (Physicians Reference Laboratory [PRL]), 7800 West 110th Street, Overland Park, Kans. 66210-2304). Clinical laboratory tests included, among others:
(b) Urinary uric acid excretion: A 24-hour total urine was collected at the time points specified in the Time and Events Schedule of the study protocol. The samples were mixed thoroughly and stored between 2° C. and 8° C. until shipment.
(§6) Laboratory data were summarized by type of laboratory test. Normal reference ranges and abnormal results were used in the summary of laboratory data. Descriptive statistics were calculated for each laboratory analyte at baseline, Day 18, and end-of-study.
Table 2, below, lists mean urine uric acid excretion and calculated mean changes through the course of the study. FIG. 2 illustrates said mean uric acid excretion (±standard deviation) as a function of study day.

Data set [3] can be described thus: Fasting serum urate levels, open-label fixed-sequence clinical study (NCT01428284). The settings on record: for Decrease of mean serum urate level from baseline: canagliflozin alone; for Serum urate level, Mean / Serum urate level, Mean Decrease: healthy subjects, canagliflozin 300 mg once daily from Day 1. It counts as in vivo, human.
From the text: as §1, §2, §3, §4, §5
(a) Serum chemistry: glucose, creatinine, blood urea nitrogen (BUN), total protein, total bilirubin, phosphate, albumin, calcium, fasting serum uric acid, sodium, potassium, chloride, magnesium, lactic acid dehydrogenase, alkaline phosphatase, alanine transaminase, aspartate transaminase, gamma-glutamyltransferase, bicarbonate, creatine phosphokinase, total cholesterol (screening only), and triglycerides (screening only); and
as §6
Table 1, below lists mean serum urate levels and calculated mean decrease through the course of the study. […] FIG. 1 illustrates said mean serum urate levels (±standard deviation) as a function of study day.

For the molecule `Oc1ncnc2[nH]ncc12` [Allopurinol], in data set [1], the Patients with side-effects entry is “up to 20%”.

As to `Cc1ccc([C@@H]2O[C@H](CO)[C@@H](O)[C@H](O)[C@H]2O)cc1Cc1ccc(-c2ccc(F)cc2)s1` [canagliflozin], the entries for the “Increase of mean urinary urate excretion compared to baseline” value in data set [2] (Day 1), in data set [2] (Day 2) and in data set [2] (Day 13) were “approximately 19%”, roughly 6% and roughly 1%, respectively. Also, the “Urine urate excretion, Mean” value was 5.068 mmol/day in data set [2] (Day 1), 4.544 mmol/day in data set [2] (Day 2), 4.319 mmol/day in data set [2] (Day 13) and 4.208 mmol/day in data set [2] (Day 14). Further, the Urine urate excretion, Mean Change from Day−1 in data set [2] (Day 1) is 0.796 mmol/day; in data set [2] (Day 2), 0.273 mmol/day; in data set [2] (Day 13), 0.048 mmol/day; in data set [2] (Day 14), -0.064 mmol/day. Further, the “Decrease of mean serum urate level from baseline” value was “approximately 19%” in data set [3] (Day 2), roughly 24% in data set [3] (Day 3) and roughly 23% in data set [3] (Day 14). For the same molecule, the “Serum urate level, Mean” value in data set [3] (Day 1) is 293.151 µmol/L; in data set [3] (Day 2), 241.580 µmol/L; in data set [3] (Day 3), 228.769 µmol/L; in data set [3] (Day 14) it was 229.684 µmol/L. Besides, the “Serum urate level, Mean Decrease” value in data set [3] (Day 1) is -5.523 µmol/L; in data set [3] (Day 2), -57.650 µmol/L; in data set [3] (Day 3) it was -70.461 µmol/L; in data set [3] (Day 14), -69.546 µmol/L.

The record behind these values is patent US20160022632A1, “COMBINATION OF CANAGLIFLOZIN AND PROBENECID FOR THE TREAMENT OF HYPERURICEMIA” (JANSSEN PHARMACEUTICA NV, priority 2013, published 2016).
